Tested on: erythrocytes infected with 3D7 trophozoites
Type: cell-based, Plasmodium falciparum

## COc1ccc2c(c1)OC(O)(C(F)(F)C(F)(F)F)CC2=O (stereo not shown) [MMV007839]
3hr
  NADP+, Average: -0.3346
  Ornithine, Average: -0.1015
  Orotate, Average: -1.466
  Orotidine 5-Phosphate, Average: -1.489
  Orotidine, Average: -1.057
  PAEF, Average: -1.307
  PD, Average: 0.2119
  PDAV, Average: 0.3685
  PE, Average: 0.9141
  PEE, Average: -0.2135
  PHF, Average: 0.05129
  PPVQ, Average: -0.3492
  PVNF, Average: -0.8559
  PVQ, Average: 0.3164
  PVQA, Average: -1.408
  Pantothenate, Average: -0.2954
  Phenylalanine, Average: -0.1326
  Phosphoenolpyruvate, Average: 0.2604
  Pipecolate, Average: 0.1041
  Proline, Average: -0.09895
  Pyridoxine, Average: -0.07403
  Pyruvate, Average: 1.858
  Ribose-5-Phosphate, Average: 0.8813
  S-Adenosyl-L-homocysteine, Average: -0.314
  SDGLA, Average: -0.3844
  SFGD, Average: -0.2955
  Sedoheptulose-1/7-Phosphate, Average: 0.2199
  Serine, Average: 0.166
  Succinate Semialdehyde, Average: -0.7119
  Succinate, Average: -0.2462
  TNVK, Average: -1.745
  Threonine, Average: 0.01502
  Tryptophan, Average: -0.2359
  Tyrosine, Average: -0.01653
  UDP, Average: -0.7159
  UDP-N-acetyl-D-glucosamine, Average: 0.05247
  UDP-glucose, Average: -0.07837
  UMP, Average: -0.2624
  Uracil, Average: -0.6081
  Valine, Average: -0.194
  Xanthine, Average: -0.464
  dADP, Average: -1.193
  dATP, Average: -0.03116
  dCDP, Average: 0.3315
  dGMP, Average: 0.1661
  dTMP, Average: 0.1316
  dTTP, Average: -0.08156
  dUMP, Average: 1.365
  myo-Inositol, Average: -0.258
  sn-Glycerol 3-Phosphate, Average: 1.559
  sn-glycero-3-Phospho-1-inositol, Average: 0.1698
6hr
  1-3 (2-3)-Bisphopshateglycerate, Average: 0.3636
  2-Hydroxyglutarate, Average: -0.3824
  2-Ketoglutarate, Average: -0.4713
  3-Phoshoglycerate, Average: 0.02516
  3-Phospho-serine, Average: -0.6364
  4-Aminobutanoate, Average: 1.092
  5-Phosphoribosyl-Pyrophosphate, Average: 0.556
  6-Phosphogluconate, Average: -0.3794
  ADP, Average: -0.3027
  AMP, Average: -0.04039
  ATLS, Average: -0.1601
  ATP, Average: -0.3608
  Acetyl-CoA, Average: -0.9886
  Acetyl-L-alanine, Average: -0.3969
  Adenine, Average: -0.7079
  Arginine, Average: 0.2024
  Asparagine, Average: 0.205
  Aspartate, Average: -0.08675
  CDP, Average: -0.2824
  CDP-ethanolamine, Average: -0.09908
  CMP, Average: 0.2839
  CTP, Average: -0.5655
  Cholesteryl sulfate, Average: -0.1903
  Citrate, Average: -0.1627
  CoA, Average: -0.6499
  Cyclic AMP, Average: -1.349
  Cytidine, Average: 0.1751
  DALT, Average: 0.7209
  DEVG, Average: -0.06216
  DGLA, Average: 0.8365
  DLS, Average: -0.1236
  Deoxycytidine, Average: 1.626
  Dihydroorotate, Average: -1.004
  ESFG, Average: 0.5044
  EVGG, Average: -0.2203
  Erythrose 4-Phosphate, Average: -0.7036
  FAD, Average: -0.616
  FMN, Average: -0.6137
  Farnesyl diphosphate, Average: -0.2783
  Folate, Average: -0.4942
  Fructose-1-6-Bisphosphate, Average: 0.3974
  Fructose-6-Phosphate, Average: -0.1081
  GDP, Average: -0.8963
  GDP-mannose, Average: -1.076
  GMP, Average: -0.8795
  GTP, Average: -0.6956
  Geranylgeranyl pyrophosphate, Average: -0.7121
  Glucono-1-4-Lactone, Average: 2.219
  Glucose-6-Phosphate, Average: -0.5083
  Glutamate, Average: -0.02563
  Glutamine, Average: 1.089
  Glutathione Disulfide, Average: -0.1925
  Glutathione, Average: -0.4326
  Glyceraldehyde 3-Phosphate, Average: -1.148
  Glycerone Phosphate, Average: -0.3794

Source: publication PMC5298231, “The Malaria Parasite's Lactate Transporter PfFNT Is the Target of Antiplasmodial Compounds Identified in Whole Cell Phenotypic Screens” (PLoS Pathogens, 2017)
